Literature values as cited in US10695309B2 (Western New England University, priority 2017, dated 2020).

Settings: for half-life: in vivo

half-life	bioavailability (reported)	Structure (SMILES)
less than 2 days	69-99%	N[C@@H](Cc1cc(I)c(Oc2ccc(O)c(I)c2)c(I)c1)C(=O)O [Formulation T3, Liothyronine]
140 to 170 h	–	N[C@@H](Cc1cc(I)c(Oc2cc(I)c(O)c(I)c2)c(I)c1)C(=O)O [Formulation T4, levothyroxine]
